Here are results for 16 molecules from PubChem BioAssay (NCI).

Common to all, as to assay: NCI-60 cell line screen, 48 h
Assay [1] deals with OVCAR-5 ovarian.
Assay [2] has as its system HT29 colon.
Assay [3] relates to RXF 393 renal.
The subject of assay [4] is SK-MEL-2 melanoma.
For assay [5], the system named is ACHN renal.
Assay [6] relates to MALME-3M melanoma.
The subject of assay [7] is SR leukemia.
In assay [8] the test system is MDA-MB-231 breast.
Assay [9] concerns KM12 colon.
The test system of assay [10] is BT-549 breast.

Structures are written as SMILES. “And” between values parts separate entries of the source, which are not always exact repeats. Equal values may be shown once.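 Results reflect a 48-hour exposure of cells in 96-well plates to compound at five concentrations. Here, GI50 denotes the concentration required for 50% inhibition of growth. TGI denotes the concentration required for complete inhibition of growth.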 Bounds are passed on as bounds.

Consider `CC(=O)Nc1ccc(C(=O)NN2C(=O)C(Cl)C2c2ccc(O)cc2)cc1` (stereo not given), for which the TGI in assay [1], in assay [2], in assay [3], in assay [4], in assay [5] and in assay [6] was over 100 µM throughout.

`COC1(C)C(=O)N2C1N(C(=O)OCc1ccccc1)CC2(C)C` (stereo not given): the TGI in [2], in assay [3], in assay [7], in assay [4], in assay [5] and in [6] was over 100 µM in each case.

Regarding `NCCC(=O)NC(Cc1cnc[nH]1)C(=O)O` (stereo not given), the TGI in assay [8], in [1], in [2], in assay [9], in assay [4] and in [5] was over 100 µM throughout. This molecule also gave a TGI in assay [6] of over 100 µM.

Regarding `COc1cccc2c1[C@H]1CO[C@H]3C4C[C@H](C(=O)O)C([C@@H](C2)N13)N4C` (stereo not given in full), the TGI in assay [1] is 4.94 µM and > 24.3 µM; in assay [10], 0.339 µM; in assay [9], 1.64 µM; in assay [3], 2.42 µM and 0.576 µM; in assay [7], 8.55 µM; in [4], 2.11 µM and 0.655 µM. For the same molecule, the TGI in assay [6] is 4.8 µM and 1.6 µM. Besides, the GI50 in assay [9] was 5.21 µM and 0.685 µM; in assay [3], 0.136 µM; in assay [4], 0.245 µM; in [6], 0.696 µM.

For the molecule `COc1ccc(-c2onc(-c3c(C)cc(C)cc3C)c2C2=NCCN2)cc1`, the TGI in [1], in assay [2], in [9], in [3], in assay [7] and in [4] was over 100 µM in each case. Moreover, the TGI in assay [5] is over 100 µM; in assay [6], 74.1 µM.

Regarding `CC(=O)NNc1nc(C)c(C(=O)/C=C/c2ccc(/C=C/C(=O)c3sc(NNC(C)=O)nc3C)cc2)s1`, the TGI in [1], in assay [2], in [9], in assay [3], in [7] and in assay [4] was over 100 µM throughout. Further, the TGI in assay [5] and in [6] was over 100 µM each time.

Turning to `O=C(COc1ccc(Cl)cc1)N1CCN(C(=O)COc2ccc(Cl)cc2)c2ccccc21`, the TGI in [1], in assay [2], in assay [9], in [3], in [4] and in assay [5] was over 100 µM in each case. Also, the TGI in [6] was over 100 µM.

As for `Nc1ccc(C(=O)NN2C(=O)C(Cl)C2c2cccc(O)c2)cc1` (stereo not given), the TGI in [1] came to 41.9 µM; in assay [2], 35.2 µM; in assay [9], 22.5 µM; in assay [4], 30.5 µM; in assay [5] it was 37.9 µM; in assay [6], 36.7 µM.

As to `O=C(CCc1nc(=S)[nH][nH]1)Nc1cccc(C(F)(F)F)c1`, the TGI in [1], in [2], in assay [9], in [3], in assay [7] and in assay [4] was over 100 µM throughout. The TGI in [5] and in assay [6] was over 100 µM each time.

In the case of `CCC[CH2][Sn]([CH2]CCC)([O]C(=O)/C=C/c1ccccc1F)[O]C(=O)/C=C/c1ccccc1F`, the GI50 in assay [1] was 1.5 µM; in assay [2], 1.58 µM; in [9], 1.38 µM; in [3] it was 0.256 µM; in [7], 0.305 µM; in [4], 0.324 µM. Besides, the GI50 is 0.797 µM in [5] and 0.385 µM in assay [6]. Also, the TGI in assay [1] came to 2.83 µM; in assay [2] it was 3.07 µM; in assay [9] it was 2.72 µM; in assay [3], 0.95 µM; in assay [7], 2.1 µM; in [4], 1.19 µM. The TGI in assay [5] came to 2.05 µM; in [6] it was 1.6 µM.

Turning to `CCCCCCCCCCCCCP(=O)(NCC(N)=O)OCC` (stereo not given), the TGI in [1] was found to be 38.3 µM; in [2], 31.7 µM; in [9] it was 34 µM; in assay [3] it was 37.7 µM; in [4], 30.3 µM; in assay [5], 47.9 µM. In assay [6], this molecule had a TGI of 32.6 µM.

As to `Cc1nc2c(sc(=S)n2-c2ccccc2)c2nc3ccccc3n12`, the TGI in assay [1], in assay [2], in assay [9], in assay [3], in assay [4] and in assay [5] was over 100 µM each time. For the same molecule, the TGI in assay [6] is over 100 µM.

Turning to `O=C(NCC(=O)N1CCOC1=O)OCc1ccccc1`, the TGI in assay [2], in [9], in [3], in [4] and in assay [5] was over 100 µM throughout.

Consider `Cc1ccc(NC(=O)CC2SC(N)=NC2=O)cc1C` (stereo not given), for which the TGI in assay [1], in [2], in assay [9], in [7], in assay [4] and in [5] was over 100 µM throughout. Besides, the TGI in [6] was over 100 µM.

For the molecule `O=C(O)COc1ccc(C(=O)/C(SS/C(C(=O)c2ccc(OCC(=O)O)c(Cl)c2Cl)=C2\C=C(c3ccc(Br)cc3)SS2)=C2/C=C(c3ccc(Br)cc3)SS2)c(Cl)c1Cl`, the TGI was over 100 µM in [1]; over 100 µM in [2]; 67.3 µM in [10]; 28.4 µM in assay [9]; 8.59 µM in assay [7]; 33.7 µM in assay [4]. Further, the TGI in assay [5] was determined as 22 µM; in assay [6] it was 41.9 µM.

On to `Nc1ccc(C(=O)N/C(=C\c2cccc([N+](=O)[O-])c2)c2nc3ccc(Cl)cc3[nH]2)cc1`, for which the TGI in assay [1], in [2], in assay [9], in assay [3], in assay [7] and in assay [4] was over 100 µM in each case. The TGI in [5] and in assay [6] was over 100 µM throughout.
